Like-named read-outs stand apart in the source and are kept apart here.
Legend:
ECM6703 (pUCP24-NDM-1) = test: microbe, parasite or virus in culture; assay type: cell-based, E. coli; settings: Escherichia coli, read-out: Imipenem MIC Alone
ECM6711 (pUCP24-VIM-1) = test: microbe, parasite or virus in culture; assay type: cell-based, E. coli; settings: Escherichia coli, read-out: Imipenem MIC Alone
[1] = system: KP1081 (NDM-1, TEM-1, SHV-11, CMY-6, CTX-M-15); assay type: cell-based, Klebsiella pneumoniae
Description: (§1) The results are present in Table 6.
(§2) The results are present in Table 7.

[2] = system: KP1087 (KPC-2, CTX-M-15, SHV-11, TEM-1); assay type: cell-based, Klebsiella pneumoniae
Description: as §1, §2

EA1019 (SHV-5, VIM-1) = assay type: cell-based, Enterobacter aerogenes
Description: (§3) Several strains simultaneously expressing both class A and class B carbapenemases, which were constructed using conjugation, were also included in the panel.

KP1004 (KPC TEM SHV) = assay type: cell-based, Klebsiella pneumoniae
Description: as §3

KP1014 (Vim-1, TEM, SHV) = assay type: cell-based, Klebsiella pneumoniae
Description: as §3

KP1054 (VIM-1, SHV-11) = assay type: cell-based, Klebsiella pneumoniae
Description: as §3

KP1059 (VIM-1, SHV-11) = assay type: cell-based, Klebsiella pneumoniae
Description: as §3

KP1061 (KPC TEM SHV) = assay type: cell-based, Klebsiella pneumoniae
Description: as §3

KP1064 (KPC TEM SHV) = assay type: cell-based, Klebsiella pneumoniae
Description: as §3

KP1065 (VIM-1, SHV-11) = assay type: cell-based, Klebsiella pneumoniae
Description: as §3

KP1070 (KPC TEM SHV) = assay type: cell-based, Klebsiella pneumoniae
Description: as §3

[3] = system: KP1081 (NDM-1, TEM-1, SHV-11, CMY-6, CTX-M-15); assay type: cell-based, Klebsiella pneumoniae; remark: listed apart in the source
Description: as §3

[4] = system: KP1084 (KPC-3, SHV-11, TEM-1); assay type: cell-based, Klebsiella pneumoniae
Description: as §3

KP1097 (IMP-1 SHV) = assay type: cell-based, Klebsiella pneumoniae
Description: as §3

KP1098 (IMP-26 TEM SHV) = assay type: cell-based, Klebsiella pneumoniae
Description: as §3

KPM1097 (NDM, KPC) = assay type: cell-based, Klebsiella pneumoniae
Description: as §3

KPM1099 (NDM, KPC) = assay type: cell-based, Klebsiella pneumoniae
Description: as §3

KPM1107 (NDM, KPC) = assay type: cell-based, Klebsiella pneumoniae
Description: as §3

KPM1108 (NDM, KPC) = assay type: cell-based, Klebsiella pneumoniae
Description: as §3

KPM1109 (NDM, KPC) = assay type: cell-based, Klebsiella pneumoniae
Description: as §3

KPM1110 (NDM, KPC) = assay type: cell-based, Klebsiella pneumoniae
Description: as §3

C[C@@H](O)[C@H]1C(=O)N2C(C(=O)O)=C(SCCN=CN)C[C@H]12 [Imipenem, reference compound]
MIC (ECM6703 (pUCP24-NDM-1)): > 1 µg/mL | MIC (ECM6711 (pUCP24-VIM-1)): > 1 µg/mL | Carbapenem MIC alone [1]: Z (key: X: MIC of less than 1 μg/mL; Y: MIC of 1 μg/mL to 10 μg/mL; Z: MIC of greater than 10 μg/mL) | Carbapenem MIC alone [2]: Y (key: X: MIC of less than 1 μg/mL; Y: MIC of 1 μg/mL to 10 μg/mL; Z: MIC of greater than 10 μg/mL) | Carbapenem MIC alone (EA1019 (SHV-5, VIM-1)): Z (key: X: MIC of less than 1 μg/mL; Y: MIC of 1 μg/mL to 10 μg/mL; Z: MIC of greater than 10 μg/mL) | Carbapenem MIC alone (KP1004 (KPC TEM SHV)): Z (key: X: MIC of less than 1 μg/mL; Y: MIC of 1 μg/mL to 10 μg/mL; Z: MIC of greater than 10 μg/mL) | Carbapenem MIC alone (KP1014 (Vim-1, TEM, SHV)): Z (key: X: MIC of less than 1 μg/mL; Y: MIC of 1 μg/mL to 10 μg/mL; Z: MIC of greater than 10 μg/mL) | Carbapenem MIC alone (KP1054 (VIM-1, SHV-11)): Y (key: X: MIC of less than 1 μg/mL; Y: MIC of 1 μg/mL to 10 μg/mL; Z: MIC of greater than 10 μg/mL) | Carbapenem MIC alone (KP1059 (VIM-1, SHV-11)): Z (key: X: MIC of less than 1 μg/mL; Y: MIC of 1 μg/mL to 10 μg/mL; Z: MIC of greater than 10 μg/mL) | Carbapenem MIC alone (KP1061 (KPC TEM SHV)): Z (key: X: MIC of less than 1 μg/mL; Y: MIC of 1 μg/mL to 10 μg/mL; Z: MIC of greater than 10 μg/mL) | Carbapenem MIC alone (KP1064 (KPC TEM SHV)): Z (key: X: MIC of less than 1 μg/mL; Y: MIC of 1 μg/mL to 10 μg/mL; Z: MIC of greater than 10 μg/mL) | Carbapenem MIC alone (KP1065 (VIM-1, SHV-11)): Y (key: X: MIC of less than 1 μg/mL; Y: MIC of 1 μg/mL to 10 μg/mL; Z: MIC of greater than 10 μg/mL) | Carbapenem MIC alone (KP1070 (KPC TEM SHV)): Z (key: X: MIC of less than 1 μg/mL; Y: MIC of 1 μg/mL to 10 μg/mL; Z: MIC of greater than 10 μg/mL) | Carbapenem MIC alone [3]: Z (key: X: MIC of less than 1 μg/mL; Y: MIC of 1 μg/mL to 10 μg/mL; Z: MIC of greater than 10 μg/mL) | Carbapenem MIC alone [4]: Z (key: X: MIC of less than 1 μg/mL; Y: MIC of 1 μg/mL to 10 μg/mL; Z: MIC of greater than 10 μg/mL) | Carbapenem MIC alone (KP1097 (IMP-1 SHV)): Y (key: X: MIC of less than 1 μg/mL; Y: MIC of 1 μg/mL to 10 μg/mL; Z: MIC of greater than 10 μg/mL) | Carbapenem MIC alone (KP1098 (IMP-26 TEM SHV)): Y (key: X: MIC of less than 1 μg/mL; Y: MIC of 1 μg/mL to 10 μg/mL; Z: MIC of greater than 10 μg/mL) | Carbapenem MIC alone (KPM1097 (NDM, KPC)): Z (key: X: MIC of less than 1 μg/mL; Y: MIC of 1 μg/mL to 10 μg/mL; Z: MIC of greater than 10 μg/mL) | Carbapenem MIC alone (KPM1099 (NDM, KPC)): Z (key: X: MIC of less than 1 μg/mL; Y: MIC of 1 μg/mL to 10 μg/mL; Z: MIC of greater than 10 μg/mL) | Carbapenem MIC alone (KPM1107 (NDM, KPC)): Z (key: X: MIC of less than 1 μg/mL; Y: MIC of 1 μg/mL to 10 μg/mL; Z: MIC of greater than 10 μg/mL) | Carbapenem MIC alone (KPM1108 (NDM, KPC)): Z (key: X: MIC of less than 1 μg/mL; Y: MIC of 1 μg/mL to 10 μg/mL; Z: MIC of greater than 10 μg/mL) | Carbapenem MIC alone (KPM1109 (NDM, KPC)): Z (key: X: MIC of less than 1 μg/mL; Y: MIC of 1 μg/mL to 10 μg/mL; Z: MIC of greater than 10 μg/mL) | Carbapenem MIC alone (KPM1110 (NDM, KPC)): Z (key: X: MIC of less than 1 μg/mL; Y: MIC of 1 μg/mL to 10 μg/mL; Z: MIC of greater than 10 μg/mL)

— patent US9132140B2, “Boronic acid derivatives and therapeutic uses thereof” (Rempex Pharmaceuticals, Inc., priority 2013, dated 2015)
